Assay results as given in ChEMBL document CHEMBL1126224, “Synthesis and biological activity of 4-(diphenylmethyl)-alpha-[(4-quinolinyloxy)methyl]-1-piperazineethanol and related compounds” (J Med Chem, 1992).
Calls of active or inactive are those of the source. No cut-off for these calls is given here.

Experiments:
Rattus norvegicus [1] = organism: Rattus norvegicus; experiment: (§1) The compound was tested for its cardiovascular activity in rat heart model. producing a 25% increase (EC25) in CF(coronary flow); N = not active; format: functional, organism-based
Rattus norvegicus [2] = organism: Rattus norvegicus; experiment: The compound was tested for its cardiovascular activity in rat heart model. producing a 25% increase (EC25) in LV dP/dtmax (measure of contractility).; format: functional
Rattus norvegicus [3] = organism: Rattus norvegicus; experiment: The compound was tested for its cardiovascular activity in rat heart model. producing a 50% increase (EC50) in LV dP/dtmax (measure of contractility).; format: functional, organism-based
Rattus norvegicus [4] = organism: Rattus norvegicus; experiment: The compound was tested for its cardiovascular activity in rat heart model. producing a 50% increase (EC50) in CF(coronary flow).; format: functional, organism-based
Rattus norvegicus [5] = organism: Rattus norvegicus; experiment: The compound was tested for its cardiovascular activity in rat heart model. producing a 50% increase (EC50) in LV dP/dtmax (measure of contractility); NA = not achieved; format: functional, organism-based
Rattus norvegicus [6] = organism: Rattus norvegicus; experiment: The compound was tested for its cardiovascular activity in rat heart model. producing a 25% increase (EC25) in CF(coronary flow).; format: functional
Rattus norvegicus [7] = organism: Rattus norvegicus; experiment: The compound was tested for its cardiovascular activity in rat heart model. producing a 25% increase (EC25) in LV dP/dtmax (measure of contractility); N = not active; format: functional, organism-based
Rattus norvegicus [8] = organism: Rattus norvegicus; experiment: The compound was tested for its cardiovascular activity in rat heart model. producing a 25% increase (EC25) in LV dP/dtmax (measure of contractility); NA = not achieved; format: functional, organism-based
Rattus norvegicus [9] = organism: Rattus norvegicus; experiment: as §1; format: functional, organism-based; remark: listed apart in the source
Canis familiaris [10] = experiment: Mean blood pressure was tested in anesthetized dogs. for a dose of 0.1 mg/kg; format: functional, Canis lupus familiaris
Canis familiaris [11] = experiment: The compound was tested for its cardiovascular activity expressed as heart rate in beat/min in anesthetized dogs for a dose of 1.0 mg/kg; format: functional, Canis lupus familiaris
Canis familiaris [12] = experiment: Mean blood pressure was tested in anesthetized dogs. for a dose of 1.0 mg/kg; format: functional, Canis lupus familiaris
Canis familiaris [13] = experiment: The compound was tested for its cardiovascular activity expressed as heart rate in beat/min in anesthetized dogs for a dose of 0.1 mg/kg; format: functional, Canis lupus familiaris
Cavia porcellus = organism: Cavia porcellus; experiment: Coronary flow activity in Langendorff perfused guinea pig heart; format: functional
Canis familiaris [14] = experiment: The compound was tested for its cardiovascular activity expressed as heart rate in beat/min in anesthetized dogs for a dose of 0.01 mg/kg; format: functional, Canis lupus familiaris
Canis familiaris [15] = experiment: Total peripheral resistance was tested in anesthetized dogs for a dose of 0.01 mg/kg; format: functional, Canis lupus familiaris
Canis familiaris [16] = experiment: The compound was tested for its cardiovascular activity in anesthetized dogs producing a 25% increase (EC25) in LV dP/dtmax (measure of contractility) for a dose of 0.01 mg/kg; format: functional, Canis lupus familiaris, Heart
Canis familiaris [17] = experiment: Total peripheral resistance was tested in anesthetized dogs for a dose of 0.1 mg/kg; format: functional, Canis lupus familiaris
Rattus norvegicus [18] = organism: Rattus norvegicus; experiment: The compound was tested for its cardiovascular activity in rat heart model. producing a 25% increase (EC50) in CF(coronary flow); NA = not achieved; format: functional, organism-based
Canis familiaris [19] = experiment: The compound was tested for its cardiovascular activity in anesthetized dogs producing a 25% increase (EC25) in LV dP/dtmax (measure of contractility) for a dose of 0.1 mg/kg; format: functional, Canis lupus familiaris, Heart
Canis familiaris [20] = experiment: The compound was tested for its cardiovascular activity in anesthetized dogs producing a 25% increase (EC25) in LV dP/dtmax (measure of contractility) for a dose of 1.0 mg/kg; format: functional, Canis lupus familiaris, Heart
Canis familiaris [21] = experiment: Mean blood pressure was tested in anesthetized dogs. for a dose of 0.01 mg/kg; format: functional, Canis lupus familiaris
Canis familiaris [22] = experiment: Total peripheral resistance was tested in anesthetized dogs for a dose of 1.0 mg/kg; format: functional, Canis lupus familiaris
Oryctolagus cuniculus = organism: Oryctolagus cuniculus; experiment: Calcium channel blocking activity in rabbit aortic rings; format: functional; settings: Aorta
Canis familiaris [23] = experiment: Total peripheral resistance was tested in anesthetized dogs for a dose of 0.3 mg/kg; format: functional, Canis lupus familiaris
Canis familiaris [24] = experiment: The compound was tested for its cardiovascular activity in anesthetized dogs producing a 25% increase (EC25) in LV dP/dtmax (measure of contractility) for a dose of 0.3 mg/kg; format: functional, Canis lupus familiaris, Heart
Canis familiaris [25] = experiment: Mean blood pressure was tested in anesthetized dogs. for a dose of 0.3 mg/kg; format: functional, Canis lupus familiaris
Canis familiaris [26] = experiment: The compound was tested for its cardiovascular activity expressed as heart rate in beat/min in anesthetized dogs for a dose of 0.3 mg/kg; format: functional, Canis lupus familiaris

Cl.OC(COc1ccc2ncccc2c1)CN1CCN(C(c2ccccc2)c2ccccc2)CC1 (configuration not stated)
EC25 (Rattus norvegicus [1]): inactive
EC25 (Rattus norvegicus [2]): 480 nM
EC50 (Rattus norvegicus [3]): 800 nM

OC(COc1ccc2cccnc2c1)CN1CCN(C(c2ccccc2)c2ccccc2)CC1 (configuration not stated)
EC50 (Rattus norvegicus [4]): 1010 nM
EC25 (Rattus norvegicus [2]): 700 nM
EC50 (Rattus norvegicus [5]): Not Active
EC25 (Rattus norvegicus [6]): 160 nM

Cc1cc(OCC(O)CN2CCN(C(c3ccccc3)c3ccccc3)CC2)c2ccccc2n1.Cl.O (configuration not stated)
EC25 (Rattus norvegicus [6]): 800 nM

OC(COc1ccnc2cc(C(F)(F)F)ccc12)CN1CCN(C(c2ccccc2)c2ccccc2)CC1 (configuration not stated)
EC50 (Rattus norvegicus [4]): 400 nM
EC25 (Rattus norvegicus [7]): inactive
EC25 (Rattus norvegicus [6]): 200 nM

OC(COc1cccc2ncccc12)CN1CCN(C(c2ccccc2)c2ccccc2)CC1 (configuration not stated)
EC50 (Rattus norvegicus [4]): 2000 nM
EC25 (Rattus norvegicus [8]): inactive
EC25 (Rattus norvegicus [6]): 800 nM

OC(COc1cccc2[nH]ccc12)CN1CCN(C(c2ccccc2)c2ccccc2)CC1 (configuration not stated)
EC50 (Rattus norvegicus [4]): 2500 nM
EC25 (Rattus norvegicus [7]): inactive
EC25 (Rattus norvegicus [6]): 120 nM

Cc1cc(OCC(O)CN2CCc3ccccc3C2)c2ccccc2n1 (configuration not stated)
EC25 (Rattus norvegicus [7]): inactive
EC50 (Rattus norvegicus [9]): Not Active

OC(COc1cccc2cnccc12)CN1CCN(c2ccccc2SCc2ccccc2)CC1 (configuration not stated)
EC25 (Rattus norvegicus [7]): inactive
EC25 (Rattus norvegicus [6]): 1000 nM

N#Cc1cc2c(OCC(O)CN3CCN(C(c4ccccc4)c4ccccc4)CC3)cccc2[nH]1 (configuration not stated)
Mean blood pressure (Canis familiaris [10]): 2.3 mmHg
EC25 (Rattus norvegicus [2]): 20 nM
Heart rate (Canis familiaris [11]): -1 beats min-1
Mean blood pressure (Canis familiaris [12]): -21 mmHg
Heart rate (Canis familiaris [13]): -0.66 beats min-1
EC25 (Cavia porcellus): 280 nM
Heart rate (Canis familiaris [14]): 0.66 beats min-1
Total peripheral resistance (Canis familiaris [15]): -9.6 mmHg·min/mL
Contractility (Canis familiaris [16]): 9 mmHg s-1
EC50 (Rattus norvegicus [3]): 35 nM
Total peripheral resistance (Canis familiaris [17]): -17.3 mmHg·min/mL
EC25 (Rattus norvegicus [6]): 300 nM
EC50 (Rattus norvegicus [18]): Not Active
Contractility (Canis familiaris [19]): 21.3 mmHg s-1
Contractility (Canis familiaris [20]): 83.3 mmHg s-1
Mean blood pressure (Canis familiaris [21]): 4.3 mmHg
Total peripheral resistance (Canis familiaris [22]): -24.5 mmHg·min/mL
EC25 (Oryctolagus cuniculus): > 100000 nM

Cc1cc(OCC(O)Cn2cnc3ccccc32)c2ccccc2n1 (configuration not stated)
EC25 (Rattus norvegicus [7]): inactive
EC50 (Rattus norvegicus [9]): Not Active

N#Cc1cc2c(OCC(O)CN3CCN(C(c4ccccc4)c4ccccc4)CC3)cccc2o1 (configuration not stated)
Mean blood pressure (Canis familiaris [10]): -0.66 mmHg
EC50 (Rattus norvegicus [4]): 3000 nM
EC25 (Rattus norvegicus [2]): 100 nM
Heart rate (Canis familiaris [11]): -3.33 beats min-1
Mean blood pressure (Canis familiaris [12]): -14.5 mmHg
Heart rate (Canis familiaris [13]): 0 beats min-1
EC25 (Cavia porcellus): 2250 nM
EC50 (Rattus norvegicus [3]): 420 nM
Total peripheral resistance (Canis familiaris [17]): -0.66 mmHg·min/mL
EC25 (Rattus norvegicus [6]): 100 nM
Contractility (Canis familiaris [19]): 2 mmHg s-1
Contractility (Canis familiaris [20]): 30.3 mmHg s-1
Total peripheral resistance (Canis familiaris [23]): -8.66 mmHg·min/mL
Contractility (Canis familiaris [24]): 9.3 mmHg s-1
Total peripheral resistance (Canis familiaris [22]): -21.7 mmHg·min/mL
Mean blood pressure (Canis familiaris [25]): -7.3 mmHg
Heart rate (Canis familiaris [26]): -1.66 beats min-1
EC25 (Oryctolagus cuniculus): > 100000 nM

CCOC(=N)c1cc2c(OCC(O)CN3CCN(C(c4ccccc4)c4ccccc4)CC3)cccc2o1 (configuration not stated)
EC25 (Rattus norvegicus [7]): inactive
EC25 (Rattus norvegicus [6]): 1000 nM

OC(COc1ccnc2ccccc12)CN1CCN(C(c2ccccc2)c2ccccc2)CC1 (configuration not stated)
EC25 (Rattus norvegicus [1]): inactive
Mean blood pressure (Canis familiaris [10]): 3 mmHg
EC25 (Rattus norvegicus [2]): 140 nM
Heart rate (Canis familiaris [11]): -2.6 beats min-1
Mean blood pressure (Canis familiaris [12]): 3 mmHg
Heart rate (Canis familiaris [13]): -2 beats min-1
EC25 (Cavia porcellus): 900 nM
EC50 (Rattus norvegicus [3]): 320 nM
Total peripheral resistance (Canis familiaris [17]): 3 mmHg·min/mL
Contractility (Canis familiaris [19]): 12 mmHg s-1
Contractility (Canis familiaris [20]): 115.5 mmHg s-1
Total peripheral resistance (Canis familiaris [23]): 6.5 mmHg·min/mL
Contractility (Canis familiaris [24]): 40 mmHg s-1
Total peripheral resistance (Canis familiaris [22]): -17 mmHg·min/mL
Mean blood pressure (Canis familiaris [25]): 4.5 mmHg
Heart rate (Canis familiaris [26]): -3.5 beats min-1
EC25 (Oryctolagus cuniculus): > 100000 nM

Oc1nccc2c(OCC(O)CN3CCN(C(c4ccccc4)c4ccccc4)CC3)cccc12 (configuration not stated)
EC25 (Rattus norvegicus [6]): 150 nM

OC(COc1cccc2cnccc12)CN1CCN(C(c2ccccc2)c2ccccc2)CC1 (configuration not stated)
EC50 (Rattus norvegicus [4]): 1500 nM
EC25 (Rattus norvegicus [7]): inactive
EC25 (Rattus norvegicus [6]): 200 nM
